# According to US9073858B2, “Methods of targeted drug development” (priority 2010, dated 2015):
# Experiments:
# [1] = Stability on incubation with human liver microsomes (HLM); type: in vitro ADME; conditions: percentage left after incubation with human liver microsomes for 30 minutes
# Experimental: (§1) Stability of hydroxyquinoline analogs were determined (see e.g., TABLE 18). MLM represents the percentage left after incubation with mouse liver microsomes for 30 minutes. HLM represents the percentage left after incubation with human liver microsomes for 30 minutes.
# (§2) Stability of analogs having a benzaldehyde derived ring were determined (see e.g., TABLE 18). MLM represents the percentage left after incubation with mouse liver microsomes for 30 minutes. HLM represents the percentage left after incubation with human liver microsomes for 30 minutes.
# [2] = Stability on incubation with mouse liver microsomes (MLM); type: in vitro ADME; conditions: percentage left after incubation with mouse liver microsomes for 30 minutes
# Experimental: as §1, §2
# [3] = test system: epithelial carcinoma A431 cell line; assay: MTT Cell Proliferation Assay, A431 cell line; type: cell-based; conditions: 72 h; for MTT-72 h A431/MDBK (ratio): value in brackets, numerically MDBK value over A431 value; for IC50: Homo sapiens, A-431, 72 h, first value of A431/MDBK pair, read-out: MTT-72 h A431
# Outline: (§3)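 Cells plated overnight, then exposed 3 days at 37 °C, 5% CO2 to compound in growth medium with 0.5% FBS and 0.5% DMSO final (0.5% DMSO as control).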
# MDBK line = assay: MTT Cell Proliferation Assay, MDBK line; type: cell-based, bovine; conditions: Bos taurus, MDBK, 72 h; second value of A431/MDBK pair; read-out: MTT-72 h MDBK
# Outline: as §3
# EGFR = target: T1, EGFR (Homo sapiens, UniProt P00533); assay: EGFR in-cell Western (ICW) screening protocol; type: cell-based; design: unit not given here; conditions: for ICW Screen: initial screen
# T1 construct: endogenous in cells; host or cells: A431 cells (ATCC CRL-1555)
# T1 sequence (P00533 25-1210): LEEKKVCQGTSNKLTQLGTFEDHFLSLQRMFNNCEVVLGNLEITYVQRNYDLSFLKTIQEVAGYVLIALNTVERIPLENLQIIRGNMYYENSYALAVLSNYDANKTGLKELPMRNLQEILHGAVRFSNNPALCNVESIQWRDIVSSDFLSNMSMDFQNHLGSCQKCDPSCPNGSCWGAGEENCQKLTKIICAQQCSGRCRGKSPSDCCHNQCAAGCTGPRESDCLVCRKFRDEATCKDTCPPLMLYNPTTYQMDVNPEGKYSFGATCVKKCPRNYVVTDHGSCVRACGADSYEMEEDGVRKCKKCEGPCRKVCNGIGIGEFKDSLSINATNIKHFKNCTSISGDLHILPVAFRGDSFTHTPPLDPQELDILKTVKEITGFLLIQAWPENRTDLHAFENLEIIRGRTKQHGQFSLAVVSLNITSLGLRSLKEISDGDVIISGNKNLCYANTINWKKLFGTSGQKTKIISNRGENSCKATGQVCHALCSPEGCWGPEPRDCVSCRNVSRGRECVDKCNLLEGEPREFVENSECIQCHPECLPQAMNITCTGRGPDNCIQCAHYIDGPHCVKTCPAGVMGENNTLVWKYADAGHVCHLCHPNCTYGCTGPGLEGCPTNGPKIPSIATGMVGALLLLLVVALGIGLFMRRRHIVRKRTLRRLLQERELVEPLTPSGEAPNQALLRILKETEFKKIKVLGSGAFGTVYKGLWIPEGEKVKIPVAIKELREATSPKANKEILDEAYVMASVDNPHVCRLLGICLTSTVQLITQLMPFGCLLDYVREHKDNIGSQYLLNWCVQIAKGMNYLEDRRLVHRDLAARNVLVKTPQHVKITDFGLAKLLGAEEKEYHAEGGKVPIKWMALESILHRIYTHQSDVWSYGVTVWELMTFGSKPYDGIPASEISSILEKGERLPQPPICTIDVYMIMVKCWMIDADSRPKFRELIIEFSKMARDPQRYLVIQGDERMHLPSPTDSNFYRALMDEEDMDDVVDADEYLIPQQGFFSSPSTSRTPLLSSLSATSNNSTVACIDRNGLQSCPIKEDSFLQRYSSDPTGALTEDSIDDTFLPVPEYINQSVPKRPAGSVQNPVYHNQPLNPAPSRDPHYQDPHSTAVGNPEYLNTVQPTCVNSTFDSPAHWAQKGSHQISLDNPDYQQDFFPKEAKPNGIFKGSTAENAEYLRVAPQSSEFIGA
# Outline: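 Serum-starved cells treated with compound 4 h at 37 °C, then stimulated with EGF (20 or 0 ng/ml solution added) in its continued presence. In-cell Western on fixed cells: phospho-EGFR (800 channel) normalised to total EGFR (700 channel), % inhibition calculated against EGF-stimulated and unstimulated no-compound wells.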
HLM % Remaining@ 30 Min [1],MLM % Remaining@ 30 Min [2],Structure (SMILES),further results
72%,17%,Cc1cccc(NC(c2ccc(OC(F)(F)F)cc2)c2ccc3cccnc3c2O)n1 (stereo not drawn) [AD4-12902],–
46%,18%,Cc1cccc(NC(c2cccc(C(F)(F)F)c2)c2ccc3cccnc3c2O)n1 (stereo not drawn) [AD4-12903],–
63%,23%,Cc1cccc(NC(c2cccc(Cl)c2Cl)c2ccc3cccnc3c2O)n1 (stereo not drawn) [AD4-12905],–
14%,5%,Cc1ccnc(NC(c2ccccc2Cl)c2ccc3cccnc3c2O)c1 (stereo not drawn) [AD4-12907],–
48%,6%,Oc1c(C(Nc2cccnc2)c2cccc(Cl)c2Cl)ccc2cccnc12 (stereo not drawn) [AD4-12908],–
50%,13%,COc1ccc(C(Nc2cccc(C)n2)c2ccc3cccnc3c2O)cc1O (stereo not drawn) [AD4-12909],–
57%,17%,Cc1cccc(NC(c2ccc(Cl)cc2Cl)c2ccc3cccnc3c2O)n1 (stereo not drawn) [AD4-12911],–
38%,10%,Cc1ccnc(NC(c2ccc(Cl)cc2Cl)c2ccc3cccnc3c2O)c1 (stereo not drawn) [AD4-12912],–
61%,41%,Cc1cccc(NC(c2cc(Cl)cc(Cl)c2)c2ccc3cccnc3c2O)n1 (stereo not drawn) [AD4-12913],–
71%,25%,Cc1ccnc(NC(c2cc(Cl)cc(Cl)c2)c2ccc3cccnc3c2O)c1 (stereo not drawn) [AD4-12915],–
80%,26%,Cc1cccc(NC(c2ccc(Cl)c(Cl)c2)c2ccc3cccnc3c2O)n1 (stereo not drawn) [AD4-12916],–
53%,11%,Cc1ccnc(NC(c2ccc(Cl)c(Cl)c2)c2ccc3cccnc3c2O)c1 (stereo not drawn) [AD4-12917],–
51%,15%,Cc1cccc(NC(c2ccc3cccnc3c2O)c2c(F)c(F)cc(F)c2F)n1 (stereo not drawn) [AD4-12918],–
61%,41%,Cc1cccc(NC(c2cc(Cl)ccc2Cl)c2ccc3cccnc3c2O)n1 (stereo not drawn) [AD4-12955],–
42%,15%,Cc1cccc(NC(c2ccc3cccnc3c2O)c2c(F)cccc2Cl)n1 (stereo not drawn) [AD4-12959],–
36%,5%,Cc1cccc(NC(c2ccc(C)c(F)c2F)c2ccc3ccc(C)nc3c2O)n1 (stereo not drawn) [AD4-13022],–
95%,60%,Cc1cccc(NC(c2cc(Cl)cc(Cl)c2Cl)c2ccc3cccnc3c2O)n1 (stereo not drawn) [AD4-13023],–
47%,20%,Cc1cccc(NC(c2ccc(F)cc2Cl)c2ccc3cccnc3c2O)n1 (stereo not drawn) [AD4-13024],–
76%,77%,Oc1c(C(Nc2ccc(C(F)(F)F)cn2)c2ccc(F)cc2F)ccc2cccnc12 (stereo not drawn) [AD4-13029],–
98%,77%,Cc1cc(Cl)cnc1NC(c1ccc(C(F)(F)F)c(F)c1)c1ccc2cccnc2c1O (stereo not drawn) [AD4-13043],–
77%,26%,Oc1c(C(Nc2cc(Cl)ccn2)c2ccc(F)cc2F)ccc2cccnc12 (stereo not drawn) [AD4-13045],–
72%,40%,Oc1c(C(Nc2ccc(C(F)(F)F)nc2)c2ccc(C(F)(F)F)c(F)c2)ccc2cccnc12 (stereo not drawn) [AD4-13051],–
97%,46%,Oc1c(C(Nc2ccc(Cl)cn2)c2ccc(C(F)(F)F)cc2)ccc2cccnc12 (stereo not drawn) [AD4-13053],–

HLM % Remaining@ 30 Min [1],MLM % Remaining@ 30 Min [2],Structure (SMILES),further results
80%,46%,Oc1c(C(Nc2ccc(Cl)cn2)c2ccc(Cl)c(Cl)c2)ccc2cccnc12 (stereo not drawn) [AD4-13054],–
100%,57%,Oc1c(C(Nc2ccc(Cl)cn2)c2ccc(C(F)(F)F)c(F)c2)ccc2cccnc12 (stereo not drawn) [AD4-13055],–
88%,85%,Oc1c(C(Nc2ccc(C(F)(F)F)cn2)c2cc(C(F)(F)F)ccc2Cl)ccc2cccnc12 (stereo not drawn) [AD4-13056],–
75%,60%,Cc1cc(Cl)cnc1NC(c1cc(C(F)(F)F)ccc1Cl)c1ccc2cccnc2c1O (stereo not drawn) [AD4-13058],–
92%,64%,Cc1cc(Cl)cnc1NC(c1ccc2cccnc2c1O)c1c(F)c(F)cc(F)c1F (stereo not drawn) [AD4-13059],–
93%,58%,Oc1c(C(Nc2ccc(F)cn2)c2ccc(C(F)(F)F)c(F)c2)ccc2cccnc12 (stereo not drawn) [AD4-13061],–
80%,42%,Oc1c(C(Nc2ccc(C(F)(F)F)nc2)c2ccc(C(F)(F)F)cc2)ccc2cccnc12 (stereo not drawn) [AD4-13063],–
83%,47%,Oc1c(C(Nc2ccc(C(F)(F)F)nc2)c2ccc(C(F)(F)F)cc2F)ccc2cccnc12 (stereo not drawn) [AD4-13065],–
89%,46%,Oc1c(C(Nc2ccc(Cl)cn2)c2ccc(Cl)c(C(F)(F)F)c2)ccc2cccnc12 (stereo not drawn) [AD4-13067],–
96%,46%,Cc1cc(Cl)cnc1NC(c1ccc(F)cc1F)c1ccc2cccnc2c1O (stereo not drawn) [AD4-13068],–
64%,13%,Cc1cccc(NC(c2cc(Cl)cc(Cl)c2)c2ccc3ccc(C)nc3c2O)n1 (stereo not drawn) [AD4-13075],–
70%,28%,Cc1cccc(NC(c2cc(Cl)cc(Cl)c2)c2cc(Cl)c3cccnc3c2O)n1 (stereo not drawn) [AD4-13076],–
85%,52%,Oc1c(C(Nc2ccc(Cl)cn2)c2cc(Cl)cc(Cl)c2)ccc2cccnc12 (stereo not drawn) [AD4-13094],–
86%,42%,Cc1cc(NC(c2ccc(C(F)(F)F)c(F)c2)c2ccc3cccnc3c2O)ncc1Cl (stereo not drawn) [AD4-13106],–
83%,28%,Cc1cc(NC(c2cccc(C(F)(F)F)c2)c2ccc3cccnc3c2O)ncc1Cl (stereo not drawn) [AD4-13107],–
99%,40%,Cc1cc(NC(c2cc(Cl)cc(Cl)c2)c2ccc3cccnc3c2O)ncc1F (stereo not drawn) [AD4-13114],–
94%,60%,Cc1cc(NC(c2cc(Cl)cc(Cl)c2)c2ccc3cccnc3c2O)ncc1Cl (stereo not drawn) [AD4-13122],–
100%,71%,Cc1cc(NC(c2ccc(Cl)c(Cl)c2)c2ccc3cccnc3c2O)ncc1Cl (stereo not drawn) [AD4-13166],–
94%,67%,Cc1ccc2ccc(C(Nc3ncc(Cl)cc3C)c3ccc(Cl)cc3Cl)c(O)c2n1 (stereo not drawn) [AD4-13200],–
100%,97%,Cc1nc(NC(c2ccc(Cl)c(Cl)c2)c2ccc3cccnc3c2O)c(Cl)cc1Cl (stereo not drawn) [AD4-13202],–
–,–,Oc1c(C(Nc2ccc(F)cc2)c2ccncc2)ccc2cccnc12 (stereo not drawn) [compound 11153],MTT-72 h A431/MDBK (ratio) [3]: 0.43; IC50 [3]: 13.1 µM; IC50 (MDBK line): 5.58 µM; ICW Screen (EGFR): 28.24; ICW Re-Test (EGFR): 20.64
–,–,Fc1cccc(C(Nc2ccccn2)c2ccc3cccnc3c2)c1 (stereo not drawn) [compound 11191],MTT-72 h A431/MDBK (ratio) [3]: 0.99; IC50 [3]: 5.59 µM; IC50 (MDBK line): 5.53 µM; ICW Screen (EGFR): 40.32; ICW Re-Test (EGFR): 22.02
